Common to all, as to assay: DTP human tumour cell line panel, 48 h
Assay [1] deals with UACC-257 melanoma.
Assay [2] deals with OVCAR-8 ovarian.
Assay [3] relates to KM12 colon.
In assay [4] the test system is CAKI-1 renal.
The subject of assay [5] is HCT-116 colon.
Assay [6] relates to SNB-19 CNS.
Assay [7] relates to DU-145 prostate.
Assay [8] deals with HOP-92 NSCLC.
Assay [9] relates to UO-31 renal.
In assay [10] the test system is HCC-2998 colon.

Structures are written as SMILES.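 Dose response: 5 concentrations. Exposure: 48 h. Format: 96-well plates. Endpoint: linear interpolation; highest concentration if not reached. GI50 = concentration required for 50% inhibition of growth. TGI denotes the concentration required for complete inhibition of growth.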

In the case of `CC12CCC(=O)C=C1CCC1C2C(O)CC2(C)C(c3csc(N)n3)CCC12` (stereo not given), the TGI in assay [1], in assay [2], in [3], in assay [4], in [5] and in [6] was above 100000 nM throughout. Moreover, the TGI in assay [7], in [8], in assay [9] and in [10] was above 100000 nM in each case.
As for `CC(CNC(Cc1ccccc1)c1ccccc1)NC(Cc1ccccc1)c1ccccc1` (stereo not given), the GI50 (in general, the concentration giving 50% growth inhibition) in assay [1] is 2670 nM; in assay [2] it was 2600 nM; in [3], 2360 nM; in [4] it was 2160 nM; in assay [5] it was 1370 nM; in [6], 3190 nM. The GI50 was 3950 nM in [7], 1830 nM in assay [8], 1870 nM in assay [9] and 2030 nM in [10]. For the same molecule, the TGI (usually the concentration giving total growth inhibition) came to 6900 nM in assay [1]; 6170 nM in [2]; 5850 nM in [3]; 7450 nM in [4]; 2860 nM in assay [5]; 13500 nM in assay [6]. Also, the TGI in assay [7] was determined as 14700 nM; in assay [8], 4090 nM; in assay [9], 6060 nM; in assay [10], 4450 nM.
With `Fc1cccc(COc2ccc(Nc3ncnc4cc(-c5ccc[nH]5)sc34)cc2Cl)c1`, the GI50 was 9380 nM in [1]; 3380 nM in assay [2]; 156 nM in assay [3]; 681 nM in assay [4]; 7460 nM in [5]; 2220 nM in assay [6]. Further, the GI50 was 3340 nM in [7], 310 nM in assay [8], 245 nM in assay [9] and 246 nM in [10]. The TGI is above 25000 nM in [1]; above 25000 nM in [2]; 5540 nM in [3]; 6890 nM in assay [4]; above 25000 nM in [5]; above 25000 nM in [6]. Further, the TGI is above 16400 nM in assay [7], 2390 nM in assay [8], 2520 nM in [9] and 19200 nM in [10].
In the case of `COc1cc(-c2cn(-c3ccc(Cl)cc3)c(C)c2C(=O)C(F)(F)F)cc(OC)c1OC`, the GI50 was 14100 nM in assay [1]; above 100000 nM in assay [2]; above 100000 nM in [3]; above 100000 nM in [4]; 7030 nM in [5]; above 100000 nM in assay [6]. Also, the GI50 in [7] was above 100000 nM; in assay [8] it was 2270 nM; in [9], 19200 nM; in assay [10], above 100000 nM. The TGI in assay [1], in assay [2], in [3], in [4], in [5] and in [6] was above 100000 nM in each case. Further, the TGI in assay [7] was above 100000 nM; in [8], 56000 nM; in assay [9], above 100000 nM; in [10] it was above 100000 nM.
As to `CC1OC2CC(=O)OC2C2=C1C(=O)c1c(O)c3c(c(O)c1C2=O)C1CC(O)C3(O)C(C)O1` (stereo not given), the GI50 is 212 nM in [1]; 271 nM in [2]; 664 nM in [3]; 224 nM in assay [4]; 45.2 nM in [5]; 1940 nM in [6]. Besides, the GI50 in assay [7] is 1380 nM; in assay [8], 1060 nM; in [9] it was 300 nM; in [10], 442 nM. Also, the TGI was determined as 525 nM in assay [1]; 3500 nM in [2]; 2020 nM in [3]; 613 nM in [4]; 252 nM in assay [5]; 5840 nM in [6]. The TGI stood at 2690 nM in assay [7], 3560 nM in assay [8], 1530 nM in assay [9] and 1670 nM in assay [10].
Regarding `COC(=O)CNC(=O)[C@@H](OC)[C@@H]1Cc2cc3cc(OC4CC(OC5CC(O)C(O)C(C)O5)C(O)C(C)O4)c(C)c(O)c3c(O)c2C(=O)[C@H]1OC1CC(OC2CC(OC3CC(C)(O)C(O)C(C)O3)C(O)C(C)O2)C(O)C(C)O1` (stereo not given in full), the GI50 is 146 nM in [1]; 122 nM in [2]; 127 nM in assay [3]; 243 nM in [4]; 46.2 nM in [5]; 154 nM in assay [6]. The GI50 is 208 nM in [7], 184 nM in [8], 450 nM in [9] and 207 nM in [10]. In addition, the TGI in [1] was 1580 nM; in [2], above 50000 nM; in assay [3] it was above 50000 nM; in [4] it was 3840 nM; in assay [5] it was 5380 nM; in assay [6], above 50000 nM. The TGI in [7] was above 50000 nM; in assay [8], 4590 nM; in [9] it was 12800 nM; in [10], 1700 nM.

The record behind these values is PubChem BioAssay (NCI).
